Results reported in patent EP0003212A1, “2.4-Diamino-5-benzylpyrimidines, pharmaceutical compositions containing them and their preparation” (F. HOFFMANN-LA ROCHE & CO. Aktiengesellschaft, priority 1977, dated 1979).
Like-named read-outs stand apart in the source and are kept apart here.

Key:
[1] = biological target: bakterielle Dihydrofolsäurereduktase (DHFR) (Escherichia coli, UniProt P0ABQ4); experiment: 50% inhibition of bacterial dihydrofolate reductase; assay type: biochemical, E. coli
Description: Die Verbindungen der Formel I und ihre Salze sind antibakteriell wirksam. Sie hemmen die bakterielle Dihydrofolsäurereduktase (DHFR) und potenzieren darüberhinaus die Wirkung von Sulfonamiden und anderen Dihydrofolsäuresynthetasehemmern. Beispiele von Sulfonamiden, die durch die erfindungsgemässen Verbindungen potenziert werden, sind solche der Pyrimidin-, Isoxazol-, Oxazol- und Pyrazinreihe wie Sulfadiazin, Sulfadimethoxin, Sulfadoxin, Sulfamerazin, Sulfameter, Sulfamethazin, 6-Methoxy-4-sulfanilamidopyrimidin, Sulfamethoxazol, Sulfisoxazol, 3-Sulfanilamido-4,5-dimethyl-isoxazol, Sulfamoxol und Sulfalen. Quantitativ zeichnen sich die erfindungsgemässen Verbindungen gegenüber bekannten Verbindungen durch niedrigere 50%ige Hemmkonzentrationen der bakteriellen DHFR, beispielsweise bei E. coli, und durch wesentlich höhere Q-Werte (50%ige Hemmung der DHFR bei Ratte/50%ige Hemmung der DHFR bei E. coli), die ein Mass für die Selektivität der Hemmung der bakteriellen DHFR darstellen, sowie durch geringe Toxizität aus.

E. coli 1346 = experiment: In vitro antibacterial activity (MIC); assay type: cell-based; details: strain E. coli 1346, unit not given
S. aureus Schoch. = experiment: In vitro antibacterial activity (MIC); assay type: cell-based; details: strain S. aureus Schoch., unit not given
[2] = DHFR of E. coli, read-out: 50% Hemmung der DHFR (M x 10^-8) E. coli

## CSc1cc(Cc2cnc(N)nc2N)cc(SC)c1-n1cccc1 [R^1=H, R^2=SCH3, R^3=[drawing], R^4=SCH3]
[1]; [2]
  IC50: 5.2 nM
E. coli 1346
  Aktivität in vitro (MIC) E. coli 1346: > 1
S. aureus Schoch.
  Aktivität in vitro (MIC) S. aureus Schoch.: 4,0

## COc1c(Br)cc(Cc2cnc(N)nc2N)cc1SC [R^1=H, R^2=SCH3, R^3=OCH3, R^4=Br]
[1]; [2]
  IC50: 11 nM
E. coli 1346
  Aktivität in vitro (MIC) E. coli 1346: 0,2
S. aureus Schoch.
  Aktivität in vitro (MIC) S. aureus Schoch.: 1,0

## CSc1cc(C)c(Cc2cnc(N)nc2N)cc1SC [R^1=CH3, R^2=H, R^3=SCH3, R^4=SCH3, 2,4-Diamino-5-[2-methyl-4,5-bis-(methylthio)-benzyl]-pyrimidin]
[1]
  IC50: 15 nM
E. coli 1346
  Aktivität in vitro (MIC) E. coli 1346: 0,7
S. aureus Schoch.
  Aktivität in vitro (MIC) S. aureus Schoch.: 0,7

## COc1cc(Cc2cnc(N)nc2N)cc(OC)c1SC [R^1=H, R^2=OCH3, R^3=SCH3, R^4=OCH3, 2,4-Diamino-5-[3,5-dimethoxy-4-(methylthio)-benzyl]-pyrimidin]
[1]
  IC50: 3.5 nM
E. coli 1346
  Aktivität in vitro (MIC) E. coli 1346: 0,02
S. aureus Schoch.
  Aktivität in vitro (MIC) S. aureus Schoch.: 0,4

## COc1cc(Cc2cnc(N)nc2N)cc(SC)c1OC [R^1=H, R^2=SCH3, R^3=OCH3, R^4=OCH3]
[1]; [2]
  IC50: 5 nM
E. coli 1346
  Aktivität in vitro (MIC) E. coli 1346: 0,1
S. aureus Schoch.
  Aktivität in vitro (MIC) S. aureus Schoch.: 0,78

## CSc1cc(Cc2cnc(N)nc2N)cc(SC)c1SC [R^1=H, R^2=SCH3, R^3=SCH3, R^4=SCH3]
[1]; [2]
  IC50: 4.5 nM
E. coli 1346
  Aktivität in vitro (MIC) E. coli 1346: 0,2
S. aureus Schoch.
  Aktivität in vitro (MIC) S. aureus Schoch.: 0,2

## COCCSc1c(OC)cc(Cc2cnc(N)nc2N)cc1OC [R^1=H, R^2=OCH3, R^3=SC2H4OCH3, R^4=OCH3]
[1]; [2]
  IC50: 97 nM
S. aureus Schoch.
  Aktivität in vitro (MIC) S. aureus Schoch.: 1,0

## CCSc1c(OC)cc(Cc2cnc(N)nc2N)cc1OC [R^1=H, R^2=OCH3, R^3=SC2H5, R^4=OCH3, 2,4-Diamino-5-[4-(äthylthio)-3,5-dimethoxybenzyl]-pyrimidin]
[1]; [2]
  IC50: 1.8 nM
E. coli 1346
  Aktivität in vitro (MIC) E. coli 1346: 0,04
S. aureus Schoch.
  Aktivität in vitro (MIC) S. aureus Schoch.: 0,4

## COc1c(SC)cc(Cc2cnc(N)nc2N)cc1SC [R^1=H, R^2=SCH3, R^3=OCH3, R^4=SCH3]
[1]; [2]
  IC50: 7.2 nM
E. coli 1346
  Aktivität in vitro (MIC) E. coli 1346: 0,7
S. aureus Schoch.
  Aktivität in vitro (MIC) S. aureus Schoch.: 0,2

## CSc1ccc(Cc2cnc(N)nc2N)cc1SC [R^1=H, R^2=H, R^3=SCH3, R^4=SCH3]
[1]; [2]
  IC50: 16 nM
S. aureus Schoch.
  Aktivität in vitro (MIC) S. aureus Schoch.: 0,7
